Laboratory results published in ChEMBL document CHEMBL3044552, “Synthesis and biological evaluation of 1-(3-chloro-2-oxo-4-phenylazetidin-1-yl)-3-(2-oxo-2-(10H-phenothiazin-10-yl)ethyl)urea derivatives” (Med Chem Res, 2013).
Values after ≈ are worked out from the molar mass of the structure shown. Active and inactive are the calls of the source. No cut-off for these calls is given here.

How the values were obtained:
[1] = test system: Mycobacterium tuberculosis; assay: Growth inhibition of Mycobacterium tuberculosis H37Rv at 1 ug/ml after 7 days by resazurin microplate assay; type: functional, organism-based
[2] = test system: Trichophyton rubrum; assay: Antifungal activity against Trichophyton rubrum after 18 hr by serial dilution method; type: functional
[3] = test system: Aspergillus niger; assay: Antifungal activity against Aspergillus niger after 18 hr by serial dilution method; type: functional
[4] = test system: Monascus purpureus; assay: Antifungal activity against Monascus purpureus after 18 hr by serial dilution method; type: functional
[5] = test system: Candida albicans; assay: Antifungal activity against Candida albicans after 18 hr by serial dilution method; type: functional
[6] = test system: Staphylococcus epidermidis; assay: Antibacterial activity against Staphylococcus albus after 18 hr by serial dilution method; type: functional
[7] = test system: Bacillus subtilis; assay: Antibacterial activity against Bacillus subtilis after 18 hr by serial dilution method; type: functional
[8] = test system: Staphylococcus aureus; assay: Antibacterial activity against Staphylococcus aureus after 18 hr by serial dilution method; type: functional
[9] = test system: Micrococcus luteus; assay: Antibacterial activity against Micrococcus luteus after 18 hr by serial dilution method; type: functional
[10] = test system: Vibrio cholerae; assay: Antibacterial activity against Vibrio cholerae after 18 hr by serial dilution method; type: functional
[11] = test system: Salmonella paratyphi; assay: Antibacterial activity against Salmonella enterica subsp. enterica serovar Paratyphi A after 18 hr by serial dilution method; type: functional
[12] = test system: Escherichia coli; assay: Antibacterial activity against Escherichia coli after 18 hr by serial dilution method; type: functional
[13] = test system: Pseudomonas aeruginosa; assay: Antibacterial activity against Pseudomonas aeruginosa after 18 hr by serial dilution method; type: functional
[14] = test system: Trichophyton rubrum; assay: Antifungal activity against Trichophyton rubrum after 24 hr by disk diffusion method; type: functional
[15] = test system: Aspergillus niger; assay: Antifungal activity against Aspergillus niger after 24 hr by disc diffusion method; type: functional
[16] = test system: Monascus purpureus; assay: Antifungal activity against Monascus purpureus after 24 hr by disk diffusion method; type: functional
[17] = test system: Candida albicans; assay: Antifungal activity against Candida albicans after 24 hr by disk diffusion method; type: functional
[18] = test system: Staphylococcus epidermidis; assay: Antibacterial activity against Staphylococcus albus after 24 hr by disk diffusion method; type: functional
[19] = test system: Bacillus subtilis; assay: Antibacterial activity against Bacillus subtilis after 24 hr by disk diffusion method; type: functional
[20] = test system: Staphylococcus aureus; assay: Antibacterial activity against Staphylococcus aureus after 24 hr by disk diffusion method; type: functional
[21] = test system: Micrococcus luteus; assay: Antibacterial activity against Micrococcus luteus after 24 hr by disk diffusion method; type: functional
[22] = test system: Mycobacterium tuberculosis; assay: Growth inhibition of Mycobacterium tuberculosis H37Rv at 100 ug/ml after 7 days by resazurin microplate assay; type: functional, organism-based
[23] = test system: Mycobacterium tuberculosis; assay: Growth inhibition of Mycobacterium tuberculosis H37Rv at 10 ug/ml after 7 days by resazurin microplate assay; type: functional, organism-based
[24] = test system: Pseudomonas aeruginosa; assay: Antibacterial activity against Pseudomonas aeruginosa after 24 hr by disc diffusion method; type: functional
[25] = test system: Escherichia coli; assay: Antibacterial activity against Escherichia coli after 24 hr by disc diffusion method; type: functional
[26] = test system: Salmonella paratyphi; assay: Antibacterial activity against Salmonella enterica subsp. enterica serovar Paratyphi A after 24 hr by disk diffusion method; type: functional
[27] = test system: Vibrio cholerae; assay: Antibacterial activity against Vibrio cholerae after 24 hr by disk diffusion method; type: functional
[28] = Antioxidant activity assessed as reduction of ferric ion after 30 min by spectrophotometric analysis; type: functional
[29] = test system: Radical scavenging activity; assay: Antioxidant activity assessed as DPPH radical scavenging activity after 30 min by spectrophotometric analysis; type: functional

Molecule	growth inhibition (GI) [1]	MIC [2] [µg/mL]	MIC [3] [µg/mL]	MIC [4] [µg/mL]	MIC [5] [µg/mL]	MIC [6] [µg/mL]	MIC [7] [µg/mL]	MIC [8] [µg/mL]	MIC [9] [µg/mL]	MIC [10] [µg/mL]	MIC [11] [µg/mL]	MIC [12] [µg/mL]	MIC [13] [µg/mL]	diameter of the inhibition zone (DIZ) [18] [mm]	diameter of the inhibition zone (DIZ) [19] [mm]	diameter of the inhibition zone (DIZ) [20] [mm]	diameter of the inhibition zone (DIZ) [21] [mm]	diameter of the inhibition zone (DIZ) [24] [mm]	diameter of the inhibition zone (DIZ) [26] [mm]	diameter of the inhibition zone (DIZ) [27] [mm]	further results
O=C(NCC(=O)N1c2ccccc2Sc2ccccc21)NN1C(=O)C(Cl)C1c1cccc(Cl)c1 (stereo not given)	inactive	250 (≈ 487 µM)	250 (≈ 487 µM)	250 (≈ 487 µM)	62.5 (≈ 122 µM)	125 (≈ 243 µM)	125 (≈ 243 µM)	250 (≈ 487 µM)	250 (≈ 487 µM)	250 (≈ 487 µM)	125 (≈ 243 µM)	500 (≈ 974 µM)	125 (≈ 243 µM)	11	11	7	5	10	10	8	diameter of the inhibition zone (DIZ) [14]: 6 mm; diameter of the inhibition zone (DIZ) [15]: 7 mm; diameter of the inhibition zone (DIZ) [16]: 7 mm; diameter of the inhibition zone (DIZ) [17]: 12 mm; growth inhibition (GI) [22]: Active; growth inhibition (GI) [23]: Active; diameter of the inhibition zone (DIZ) [25]: 5 mm
FERROUS SULFATE																					Activity [28]: Active
COc1ccc(C2C(Cl)C(=O)N2NC(=O)NCC(=O)N2c3ccccc3Sc3ccccc32)cc1 (stereo not given)		250 (≈ 491 µM)	125 (≈ 246 µM)	250 (≈ 491 µM)	250 (≈ 491 µM)	62.5 (≈ 123 µM)	250 (≈ 491 µM)	250 (≈ 491 µM)	250 (≈ 491 µM)	125 (≈ 246 µM)	125 (≈ 246 µM)	125 (≈ 246 µM)	125 (≈ 246 µM)	10	7	5	7	7	8	9	diameter of the inhibition zone (DIZ) [14]: 6 mm; diameter of the inhibition zone (DIZ) [15]: 10 mm; diameter of the inhibition zone (DIZ) [16]: 6 mm; diameter of the inhibition zone (DIZ) [17]: 7 mm; diameter of the inhibition zone (DIZ) [25]: 8 mm
O=C1O[C@H]([C@@H](O)CO)C(O)=C1O [ASCORBIC ACID]																					EC50 [29]: 40 µg/mL (≈ 227 µM)
CO[C@H]1/C=C/O[C@@]2(C)Oc3c(C)c(O)c4c(O)c(c(/C=N/N5CCN(C)CC5)c(O)c4c3C2=O)NC(=O)/C(C)=C\C=C\[C@H](C)[C@H](O)[C@@H](C)[C@@H](O)[C@@H](C)[C@H](OC(C)=O)[C@@H]1C	Active																				growth inhibition (GI) [23]: Active
O=C(O)c1cn(C2CC2)c2cc(N3CCNCC3)c(F)cc2c1=O [CIPROFLOXACIN]						62.5 (≈ 189 µM)	62.5 (≈ 189 µM)	62.5 (≈ 189 µM)	125 (≈ 377 µM)	125 (≈ 377 µM)	125 (≈ 377 µM)	62.5 (≈ 189 µM)	62.5 (≈ 189 µM)	23	25	20	16	22	18	15	
